Test results as given in patent publication US20080090297A1, “Methods for determining the metal bioavailability of metal sources” (Novus International Inc., priority 2006, published 2008).

Columns and labels:
[1] = test system: metallothionein (MT) mRNA; experiment: Bioavailability of different zinc compositions in chickens, MT mRNA in jejunum mucosal scrapings by QRT-PCR; format: in vivo, chicken; conditions: 70 ppm zinc in corn-soy diet for 2 days (day 21 to 23); six birds per treatment; 18S-normalized; P≦0.05
Description: Chickens were fed a low zinc pre-feed diet for 20 days. On day 21, they were switched to a corn-soy diet supplemented with one of the following: 1) unsupplemented for zinc (control); 2) 70 ppm zinc from ZnOxide; 3) 70 ppm zinc from a zinc amino acid complex (Zn AAC); 4) 70 ppm zinc from Zn(HMTBA)2. On day 23, six birds from each treatment were weighed, sacrificed, and jejunum samples were collected. The lumen was rinsed with 3-4 ml of cold saline, the jejunum was cut open lengthwise, and the mucosal surface was scraped with a glass slide. Cell scrapings were collected into 0.9 ml of RNAlater. RNA was isolated as described in Example 1. QRT-PCR was performed as described in Example 1, and 18S-normalized MT mRNA expression was determined.

[2] = test system: metallothionein (MT) mRNA; experiment: Time course of zinc-induced expression of metallothionein in chicken jejunum, QRT-PCR; format: in vivo
Source text: A total of 54 chickens were fed a low zinc/low copper milo starter diet for 10 days. On day 11 (t=Day 0), the birds were split into two groups: 18 were fed a corn-soy diet supplemented with 25 ppm copper oxide and no zinc (“Cu”) and 36 were fed a corn-soy diet supplemented with 25 ppm copper oxide and 70 ppm zinc from Zn(HMTBA)2 (“Cu+Zn(HMTBA)2”). On days 13 (t=Day 2), 16 (t=Day 5) and 19 (t=Day 8), three “Cu” and three “Cu+Zn(HMTBA)2” birds per day were weighed and sacrificed. The mid-jejunum was collected from each bird. The lumen was rinsed with 3-4 ml of cold saline, and each sample was divided into two pieces, with each piece being no larger than 0.5 cm in any direction. The two pieces from each bird were placed in separate microcentrifuge tubes containing 0.9 ml of RNAlater solution.
RNA was isolated (RNA from the two pieces from each bird were pooled), and 18S-normalized MT mRNA expression levels were measured by QRT-PCR as described in Example 1. The data are expressed as MT mRNA expression relative to the low zinc jejunum reference sample from Example 1.

[3] = test system: metallothionein (MT) mRNA; experiment: Induction of metallothionein (MT) mRNA by zinc in chicken tissues, QRT-PCR; format: in vivo; conditions: high zinc diet (34 ppm basal + 64 ppm zinc from Zn(HMTBA)2) vs low zinc diet (34 ppm); day 29; normalized to 18S rRNA; one bird per group
Source text: Zinc treatment and sample collection. Upon hatching, chicks were placed on a moderately Zn-deficient starter diet. On day 13, they were switched to two different test diets: some were fed a low zinc diet with no zinc supplements (the diet contained 34 ppm zinc in the basal feedstuffs) and the rest were fed a high zinc diet comprising 34 ppm zinc in the feedstuffs and 64 ppm zinc from Zn(HMTBA)2 for a total of 98 ppm zinc. On day 29, a chicken from each group was sacrificed and the following tissues were collected: jejunum (small intestine), jejunum mucosal scrapings, liver, and kidney. The lumen of a 2-3 inch long jejunum section was rinsed with 3-4 ml of cold saline. The jejunum was cut open lengthwise and placed mucosa-side up on a clean cutting board. One piece of jejunum, no greater than 0.5 cm in any direction, was placed into a microcentrifuge tube containing 0.9 ml of RNAlater solution, and stored according to the manufacturer's instructions (Ambion, Austin Tex.). The jejunum section's remaining mucosal surface was scraped with a glass slide. Cell scrapings were collected and placed into 0.9 ml RNAlater. The other tissues were stored in RNAlater. RNA was isolated using the High Pure RNATissue Prep Kit (Roche Applied Science, Cat No 12033674001) following the manufacturer's instructions. The concentration of RNA was determined using a spectrophotometer, and the concentration of RNA was adjusted to a maximum of 0.5 mg/ml by dilution with elution buffer. The RNA samples were either used immediately, or frozen on dry ice and stored at −80° C. until use.
Reverse Transcriptase and Quantitative PCR. First strand cDNA synthesis was performed using the Transcriptor Reverse Transcriptase® (Roche Applied Science, Indianapolis, Ind., catalog #04379012001), using the instructions supplied by the manufacturer. Each first-strand synthesis reaction contained 0.5 μg of total RNA. The reverse transcription was performed in a thermocycler using the following program: a brief, 90 sec denaturation step at 65° C.; annealing for 30 sec at 40° C.; 30 min cDNA synthesis at 55° C.; and enzyme inactivation by 5 min denaturation at 85° C. The reaction product was concentrated by ethanol precipitation, rinsed and dried. The sample was then resuspended in 400 μl of nuclease-free water and A260/A280 was measured to ensure that cDNA concentration in each sample would fall within the range of concentration usable by the QRT-PCR assay.
MT mRNA and 18S rRNA levels were measured by QRT-PCR on a Roche LightCycler®, using the LightCycler® FastStart DNA Master HybProbe Kit (Roche Molecular Systems, Inc, Alameda, Calif., catalog #300324) using 0.5 μM of each primer and 0.2 μM of each TaqMan probe, as shown in Table 1. […]

Row | SMILES | levels of MT mRNA induced in jejunum mucosal scrapings [1] | MT mRNA expression in jejunum, overall effect of treatment ([2]; 70 ppm zinc from Zn(HMTBA)2 + 25 ppm copper oxide vs 25 ppm copper oxide only, days 2, 5, 8, P=0.0077) | MT mRNA expression in jejunum, difference between treatments by day ([2]; Cu+Zn(HMTBA)2 vs Cu diet, three birds per treatment per day, days 2, 5 and 8) | fold induction of MT mRNA in jejunum [3] | fold induction of MT mRNA in jejunum mucosal scrapings [3] | fold induction of MT mRNA in kidney [3] | fold induction of MT mRNA in liver [3]
1 | CSCCC(O)C(=O)[O-].CSCCC(O)C(=O)[O-].[Zn+2] (centres unmarked) [Zn(HMTBA)2] | significantly greater than those induced by ZnOxide or the Zn AAC | increased MT expression | Significant differences in MT expression are seen between treatments on days 5 and 8 | 34 fold | 125 fold | 9 fold | 19 fold
2 | [O-2].[Zn+2] [ZnOxide, zinc oxide, reference compound] | not significantly greater than MT expression in the unsupplemented birds |  |  |  |  |  | 
